# From PubChem BioAssay (NCI)
#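 Five concentrations, 48 hours, 96-well plates. GI50 is the concentration that inhibits growth by half. The concentration for full growth arrest is given as TGI.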
# What was measured:
# Experiment in all cases: growth of human tumour cells (NCI), 48 h
# MDA-MB-435 = tested on: MDA-MB-435
# PC-3 prostate = tested on: PC-3 prostate
# K-562 leukemia = tested on: K-562 leukemia
# HCC-2998 colon = tested on: HCC-2998 colon
# OVCAR-4 ovarian = tested on: OVCAR-4 ovarian
# OVCAR-5 ovarian = tested on: OVCAR-5 ovarian
# HS 578T breast = tested on: HS 578T breast
# HOP-62 NSCLC = tested on: HOP-62 NSCLC
# 786-0 renal = tested on: 786-0 renal
# SK-MEL-5 melanoma = tested on: SK-MEL-5 melanoma
# COLO 205 colon = tested on: COLO 205 colon
# SK-MEL-28 melanoma = tested on: SK-MEL-28 melanoma
# DU-145 prostate = tested on: DU-145 prostate
# A549 NSCLC = tested on: A549 NSCLC
# SNB-19 CNS = tested on: SNB-19 CNS
# UO-31 renal = tested on: UO-31 renal
# U251 CNS = tested on: U251 CNS
# NCI-H460 lung = tested on: NCI-H460 lung
# RPMI-8226 leukemia = tested on: RPMI-8226 leukemia
# KM12 colon = tested on: KM12 colon
# OVCAR-3 ovarian = tested on: OVCAR-3 ovarian
# UACC-62 melanoma = tested on: UACC-62 melanoma
# MOLT-4 leukemia = tested on: MOLT-4 leukemia
# M14 melanoma = tested on: M14 melanoma
# IGROV1 ovarian = tested on: IGROV1 ovarian
# EKVX NSCLC = tested on: EKVX NSCLC
# LOX IMVI melanoma = tested on: LOX IMVI melanoma
# HCT-116 colon = tested on: HCT-116 colon
# TK-10 renal = tested on: TK-10 renal
# SNB-75 CNS = tested on: SNB-75 CNS
# UACC-257 melanoma = tested on: UACC-257 melanoma
# SN12C renal = tested on: SN12C renal
# SF-295 CNS = tested on: SF-295 CNS
# RXF 393 renal = tested on: RXF 393 renal
# SR leukemia = tested on: SR leukemia
# MCF7 breast = tested on: MCF7 breast
# HT29 colon = tested on: HT29 colon
# NCI-H522 lung = tested on: NCI-H522 lung
# HOP-92 NSCLC = tested on: HOP-92 NSCLC
# T-47D breast = tested on: T-47D breast
# SK-OV-3 ovarian = tested on: SK-OV-3 ovarian
# OVCAR-8 ovarian = tested on: OVCAR-8 ovarian
# A498 renal = tested on: A498 renal
# BT-549 breast = tested on: BT-549 breast
# MDA-MB-231 breast = tested on: MDA-MB-231 breast
# CAKI-1 renal = tested on: CAKI-1 renal
# CCRF-CEM leukemia = tested on: CCRF-CEM leukemia
# SF-539 CNS = tested on: SF-539 CNS
# NCI-H226 lung = tested on: NCI-H226 lung
# SF-268 CNS = tested on: SF-268 CNS
# NCI-H23 lung = tested on: NCI-H23 lung
# HCT-15 colon = tested on: HCT-15 colon
# SW-620 colon = tested on: SW-620 colon
# ACHN renal = tested on: ACHN renal
structure (smiles),measurement,setting,value
N#CCC1CCN(c2nc(Nc3ccc(N4CCC(O)CC4)cc3)c3c(=O)[nH]ncc3n2)CC1,GI50,MDA-MB-435,628 nM
same,TGI,MDA-MB-435,> 100000 nM
same,GI50,PC-3 prostate,> 100000 nM
same,TGI,PC-3 prostate,> 100000 nM
same,GI50,K-562 leukemia,1510 nM
same,TGI,K-562 leukemia,> 100000 nM
same,GI50,HCC-2998 colon,1710 nM
same,TGI,HCC-2998 colon,> 100000 nM
same,GI50,OVCAR-4 ovarian,> 58100 nM
same,TGI,OVCAR-4 ovarian,> 100000 nM
same,GI50,OVCAR-5 ovarian,1220 nM
same,TGI,OVCAR-5 ovarian,> 100000 nM
same,GI50,HS 578T breast,220 nM
same,TGI,HS 578T breast,1230 nM
same,GI50,HOP-62 NSCLC,801 nM
same,TGI,HOP-62 NSCLC,> 100000 nM
same,GI50,786-0 renal,820 nM
same,TGI,786-0 renal,> 100000 nM
same,GI50,SK-MEL-5 melanoma,> 100000 nM
same,TGI,SK-MEL-5 melanoma,> 100000 nM
same,GI50,COLO 205 colon,374 nM
same,GI50,SK-MEL-28 melanoma,1200 nM
same,TGI,SK-MEL-28 melanoma,> 100000 nM
same,GI50,DU-145 prostate,547 nM
same,TGI,DU-145 prostate,> 100000 nM
same,GI50,A549 NSCLC,455 nM
same,TGI,A549 NSCLC,> 100000 nM
same,GI50,SNB-19 CNS,5020 nM
same,TGI,SNB-19 CNS,> 100000 nM
same,GI50,UO-31 renal,259 nM
same,TGI,UO-31 renal,4670 nM
same,GI50,U251 CNS,1030 nM
same,TGI,U251 CNS,> 100000 nM
same,GI50,NCI-H460 lung,692 nM
same,TGI,NCI-H460 lung,> 100000 nM
same,GI50,RPMI-8226 leukemia,> 100000 nM
same,TGI,RPMI-8226 leukemia,> 100000 nM
same,GI50,KM12 colon,38 nM
same,TGI,KM12 colon,> 100000 nM
same,TGI,OVCAR-3 ovarian,> 100000 nM
same,GI50,UACC-62 melanoma,> 100000 nM
same,TGI,UACC-62 melanoma,> 100000 nM
same,GI50,MOLT-4 leukemia,652 nM
same,TGI,MOLT-4 leukemia,> 100000 nM
same,GI50,M14 melanoma,402 nM
same,TGI,M14 melanoma,> 100000 nM
same,GI50,IGROV1 ovarian,266 nM
same,TGI,IGROV1 ovarian,2950 nM
same,GI50,EKVX NSCLC,1850 nM
same,TGI,EKVX NSCLC,> 100000 nM
same,GI50,LOX IMVI melanoma,489 nM
same,TGI,LOX IMVI melanoma,> 100000 nM
same,GI50,HCT-116 colon,345 nM
same,TGI,HCT-116 colon,> 100000 nM
same,GI50,TK-10 renal,306 nM
same,TGI,TK-10 renal,> 100000 nM
same,GI50,SNB-75 CNS,337 nM
same,TGI,SNB-75 CNS,2430 nM
same,GI50,UACC-257 melanoma,> 100000 nM
same,TGI,UACC-257 melanoma,> 100000 nM
same,GI50,SN12C renal,391 nM
same,TGI,SN12C renal,> 100000 nM
same,GI50,SF-295 CNS,1440 nM
same,TGI,SF-295 CNS,> 100000 nM
same,GI50,RXF 393 renal,303 nM
same,TGI,RXF 393 renal,1300 nM
same,GI50,SR leukemia,288 nM
same,TGI,SR leukemia,> 100000 nM
same,GI50,MCF7 breast,297 nM
same,TGI,MCF7 breast,> 100000 nM
same,GI50,HT29 colon,283 nM
same,TGI,HT29 colon,> 100000 nM
same,GI50,NCI-H522 lung,> 100000 nM
same,TGI,NCI-H522 lung,> 100000 nM
same,GI50,HOP-92 NSCLC,239 nM
same,TGI,HOP-92 NSCLC,> 100000 nM
same,GI50,T-47D breast,2050 nM
same,TGI,T-47D breast,> 100000 nM
same,GI50,SK-OV-3 ovarian,267 nM
same,TGI,SK-OV-3 ovarian,1880 nM
same,GI50,OVCAR-8 ovarian,8080 nM
same,TGI,OVCAR-8 ovarian,> 100000 nM
same,GI50,A498 renal,342 nM
same,TGI,A498 renal,1740 nM
same,GI50,BT-549 breast,1280 nM
same,TGI,BT-549 breast,> 100000 nM
same,GI50,MDA-MB-231 breast,1170 nM
same,TGI,MDA-MB-231 breast,> 100000 nM
same,GI50,CAKI-1 renal,312 nM
same,TGI,CAKI-1 renal,> 100000 nM
same,GI50,CCRF-CEM leukemia,1010 nM
same,TGI,CCRF-CEM leukemia,> 100000 nM
same,GI50,SF-539 CNS,869 nM
same,TGI,SF-539 CNS,2820 nM
same,GI50,NCI-H226 lung,639 nM
same,TGI,NCI-H226 lung,> 100000 nM
same,GI50,SF-268 CNS,1200 nM
same,TGI,SF-268 CNS,> 100000 nM
same,GI50,NCI-H23 lung,732 nM
same,TGI,NCI-H23 lung,> 100000 nM
same,GI50,HCT-15 colon,428 nM
same,TGI,HCT-15 colon,> 100000 nM
same,GI50,SW-620 colon,443 nM
same,TGI,SW-620 colon,> 100000 nM
same,GI50,ACHN renal,473 nM
same,TGI,ACHN renal,> 100000 nM
